Measured values as given in US6011070A, “Slow-onset, long-lasting dopamine reuptake blockers” (priority 1997, dated 2000).
Read-outs that look alike come from different tables or passages of the source.

Experiments:
male Swiss-Webster mice = assay: Dose response study of induced locomotor stimulation (Digiscan), 1 h session (Example 2); assay type: in vivo, Swiss-Webster mice (Hsd:ND4); settings: IP, locomotor activity
Protocol: A dose response study of induced locomotor stimulation was conducted according to the following procedure. The study was conducted using a 16 or 32 Digiscan locomotor activity testing chambers (40.5×40.5×30.5 cm) housed in sets of two, within sound-attenuating chambers. A panel of infrared beams (16 beams) and corresponding photodetectors were located in the horizontal direction along the sides of each activity chamber. A 15-W incandescent light above each chamber provided dim illumination. Fans provided an 80-dB ambient noise level within the chamber. Separate groups of 8 non-habituated male Swiss-Webster mice (Hsd:ND4, aged 2-3 months) were injected via the intraperitoneal (IP) route with either vehicle (deionized water for Compounds 1-4, carboxymethylcellulose for Compound 6 or methyl cellulose for Compound 7)) or test compound (1, 2.5, 5, 10, 25 or 50 mg/kg for Compound 3; 1, 3, 10 and 30 mg/kg for Compounds 1, 2 and 4; 3, 10, 30 or 100 mg/kg for Compound 6; and 1, 3, 10, 30 and 100 mg/kg for Compound 7). Compounds 1-4 were injected immediately prior to locomotor activity testing. […] In all studies, horizontal activity (interruption of photocell beams) was measured for 1 hour within 10 minute periods. Testing was conducted with one mouse per activity chamber.
FIGS. 1, 3, 5 and 7 show average horizontal activity counts/10 minutes as a function of time, immediately following injection of Compound 1, Compound 2, Compound 3 and Compound 4, respectively. FIGS. 13 and 15 show average horizontal activity counts/10 minutes as a function of time, beginning twenty minutes following injection of Compound 6 and Compound 7, respectively. The period 30-60 minutes was selected for analysis of dose-response data. Using TableCurve 2D v2.03 software (Jandel Scientific), the mean average horizontal activity counts/10 minutes for this period were fit to a 3-parameter logistic peak function of log10 dose (with the constant set to 1989, the mean of the vehicle-treated group), and the maximum effect estimated from the resulting curve. […] FIGS. 2, 4, 6, 8, 14 and 16 show average horizontal activity counts/10 minutes over 30 minutes versus the amount administered of Compound 1, Compound 2, Compound 3, Compound 4, Compound 6 and Compound 7, respectively.

dopamine transporter [1] = target: T1, dopamine transporter (Rattus norvegicus, UniProt P23977); assay: Inhibition of binding of dopamine to the dopamine transporter (Example 4)
T1 construct: from tissue
T1 sequence (P23977 whole entry): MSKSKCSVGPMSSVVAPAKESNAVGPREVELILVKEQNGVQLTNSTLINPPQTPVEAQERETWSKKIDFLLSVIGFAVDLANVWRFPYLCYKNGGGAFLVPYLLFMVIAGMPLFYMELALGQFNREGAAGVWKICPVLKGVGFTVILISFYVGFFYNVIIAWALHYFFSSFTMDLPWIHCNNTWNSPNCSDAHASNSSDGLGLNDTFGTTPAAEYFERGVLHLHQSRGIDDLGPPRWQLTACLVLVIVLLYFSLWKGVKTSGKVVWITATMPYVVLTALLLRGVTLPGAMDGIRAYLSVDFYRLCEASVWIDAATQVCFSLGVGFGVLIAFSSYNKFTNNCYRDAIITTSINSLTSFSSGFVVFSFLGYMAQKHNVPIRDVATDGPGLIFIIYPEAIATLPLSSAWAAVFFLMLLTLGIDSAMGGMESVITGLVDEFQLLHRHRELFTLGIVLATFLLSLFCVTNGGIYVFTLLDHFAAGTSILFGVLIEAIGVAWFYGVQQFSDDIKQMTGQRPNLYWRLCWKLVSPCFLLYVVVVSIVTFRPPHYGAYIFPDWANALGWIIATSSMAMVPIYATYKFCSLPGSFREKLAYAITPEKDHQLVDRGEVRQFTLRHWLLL

dopamine transporter [2] = target: T1, dopamine transporter; assay: Inhibition of dopamine reuptake (Example 4); assay type: biochemical
squirrel monkeys [3] = assay: Locomotor response in primates (Example 5); assay type: in vivo
Protocol: Compound 1 was tested for its ability to induce a locomotor response in primates according to procedures disclosed in Rosenzweig-Lipson et al., Psychopharmacology 107:186 (1992). Three squirrel monkeys were administered 1.0 mg/kg of Compound 1. […] The results for each monkey are shown below in Table III and is presented as the responses per second on each day of the test. Controls were established by testing each monkey prior to administering Compound 1.

monkeys = assay: Previous evaluation, Task I: Drug Discrimination; assay type: in vivo
From the text: It is of interest to compare the results of the present study with the results of our previous evaluation of Compound 1 in Task I: Drug Discrimination. […] Higher doses of Compound 1 were not examined in the present study.

male rhesus monkeys = settings: for Rates of cocaine self-administration, % of control levels: 30 min pretreatment
squirrel monkeys [4] = assay: Locomotor response in primates (Example 5); assay type: in vivo; remark: listed apart in the source

SMILES: CN(C)C1CC(c2ccc(Cl)c(Cl)c2)c2ccccc21 (stereo not shown) [Compound 1, N,N-dimethyl-3-(3',4'-dichlorophenyl)-1-indanamine]
- Maximal Effect Relative to Cocaine (male Swiss-Webster mice): 0.82
- ED50 (male Swiss-Webster mice; Mus musculus, 30-60 min period, read-out: ED50 (dose producing 1/2 maximal stimulant activity)): 4.88 mg/kg
- IC50 (dopamine transporter [1]): 47 nM
- Uptake/Binding (dopamine transporter [2]; ratio of IC50 values): 1.19
- IC50 (dopamine transporter [2]; read-out: DA Uptake, inhibition of dopamine reuptake IC50): 56 nM
- Time of peak of locomotor response (squirrel monkeys [3]; 1.0 mg/kg Compound 1): three
- Number of Responses/Second (squirrel monkeys [3]; 1.0 mg/kg Compound 1, Day 1, Monkey 6 (control 0.93)): 1.01 responses/second
- Number of Responses/Second (squirrel monkeys [3]; 1.0 mg/kg Compound 1, Day 2, Monkey 4 (control 1.15)): 1.72 responses/second
- Number of Responses/Second (squirrel monkeys [3]; 1.0 mg/kg Compound 1, Day 4, Monkey 4 (control 1.15)): 1.06 responses/second
- Number of Responses/Second (squirrel monkeys [3]; 1.0 mg/kg Compound 1, Day 4, Monkey 5 (control 0.51)): 1.01 responses/second
- Number of Responses/Second (squirrel monkeys [3]; 1.0 mg/kg Compound 1, Day 5, Monkey 4 (control 1.15)): 1.05 responses/second
- Effect on response rates (monkeys; Compound 1, 3.2 mg/kg): little effect on response rates in two monkeys, increased response rates in one monkey, and eliminated responding in only one monkey
- Effect on responding, feeding and behavior (monkeys; Compound 1, 10 mg/kg, one monkey): eliminated operant responding, decreased free feeding and produced overt behavioral effects including hyperactivity and agitation for several days
- Effect on response rates (monkeys; Compound 1, doses up to 1.0 mg/kg): little or no effect on response rates
- Rates of cocaine self-administration, % of control levels (male rhesus monkeys; 3.2 mg/kg Compound 1 i.m.): approximately 25 % of control levels
- Rates of cocaine self-administration and food-maintained responding across cocaine unit doses (male rhesus monkeys; 3.2 mg/kg Compound 1 i.m., all three monkeys): decreased rates of cocaine self-administration across a wide range of cocaine unit doses while producing relatively minor effects on food-maintained responding
- Rates of food-maintained responding (male rhesus monkeys; 3.2 mg/kg Compound 1 i.m., monkey 89B056): usually unaffected
- Rates of food-maintained responding (male rhesus monkeys; 3.2 mg/kg Compound 1 i.m., monkey J3A): small and inconsistent changes
- Cocaine unit doses at which self-administration rates were decreased (male rhesus monkeys; 3.2 mg/kg Compound 1 i.m., monkey WH8): 0.001-0.01 mg/kg/inj
- Rates of food-maintained responding, % of control levels (male rhesus monkeys; 3.2 mg/kg Compound 1 i.m., monkey WH8, first food component): approximately 30 % of control levels
- Rates of food-maintained responding (male rhesus monkeys; 3.2 mg/kg Compound 1 i.m., monkey WH8, second food component): unaffected
- Range of cocaine doses across which self-administration was decreased (male rhesus monkeys; 3.2 mg/kg Compound 1 i.m., three monkeys): one to two
- Rates of cocaine self-administration, % of control levels (male rhesus monkeys; 0.1-1.0 mg/kg Compound 1 i.m.): 50-75 % of control levels
- Overt behavioral effects (male rhesus monkeys; Compound 1, 0.1-3.2 mg/kg i.m., prior to or during test session): did not produce noticeable overt behavioral effects
- Onset of locomotor response (squirrel monkeys [4]; 1.0 mg/kg Compound 1, 25 minute intervals): slow onset locomotor response
- Number of Responses/Second (squirrel monkeys [4]; 1.0 mg/kg Compound 1, Day 1, Monkey 4 (control 1.15)): 1.63 responses/second
- Number of Responses/Second (squirrel monkeys [4]; 1.0 mg/kg Compound 1, Day 1, Monkey 5 (control 0.51)): 0.76 responses/second
- Number of Responses/Second (squirrel monkeys [4]; 1.0 mg/kg Compound 1, Day 2, Monkey 5 (control 0.51)): 1.50 responses/second
- Number of Responses/Second (squirrel monkeys [4]; 1.0 mg/kg Compound 1, Day 2, Monkey 6 (control 0.93)): 1.31 responses/second
- Number of Responses/Second (squirrel monkeys [4]; 1.0 mg/kg Compound 1, Day 3, Monkey 4 (control 1.15)): 1.92 responses/second
- Number of Responses/Second (squirrel monkeys [4]; 1.0 mg/kg Compound 1, Day 3, Monkey 5 (control 0.51)): 1.51 responses/second
- Number of Responses/Second (squirrel monkeys [4]; 1.0 mg/kg Compound 1, Day 3, Monkey 6 (control 0.93)): 1.40 responses/second
- Number of Responses/Second (squirrel monkeys [4]; 1.0 mg/kg Compound 1, Day 4, Monkey 6 (control 0.93)): 1.16 responses/second
- Number of Responses/Second (squirrel monkeys [4]; 1.0 mg/kg Compound 1, Day 5, Monkey 5 (control 0.51)): 0.82 responses/second
- Number of Responses/Second (squirrel monkeys [4]; 1.0 mg/kg Compound 1, Day 5, Monkey 6 (control 0.93)): 1.14 responses/second
- Number of Responses/Second (squirrel monkeys [4]; 1.0 mg/kg Compound 1, Day 6, Monkey 5 (control 0.51)): 0.62 responses/second
- Number of Responses/Second (squirrel monkeys [4]; 1.0 mg/kg Compound 1, Day 7, Monkey 5 (control 0.51)): 0.60 responses/second
